Source: US5512562A, “Tricyclic 2,3,4,5-tetrahydro-1H-3-benzapines” (Novo Nordisk A/S, priority 1993, dated 1996)

Target: T1, dopamine D1 receptor (Rattus norvegicus, UniProt P18901)
T1 construct: from tissue; host or cells: rat striatum homogenate
Test: binding to dopamine D1 receptor in homogenates from rat striatum
Method: The compounds of the invention are useful because of their pharmacological activity. In particular, the compounds of the invention are active in assays predictive for antipsychotic effect. Thus the compounds of formula I were tested for their binding to dopamine D1 receptor in homogenates from rat striatum using the method described (Life Science vol. 37, p. 1971 (1985) P. Andersen et al.) and the result appears from Table I. IC50 is the affinity of tested compounds for the dopamine D1 receptor.

T1 sequence (P18901 whole entry): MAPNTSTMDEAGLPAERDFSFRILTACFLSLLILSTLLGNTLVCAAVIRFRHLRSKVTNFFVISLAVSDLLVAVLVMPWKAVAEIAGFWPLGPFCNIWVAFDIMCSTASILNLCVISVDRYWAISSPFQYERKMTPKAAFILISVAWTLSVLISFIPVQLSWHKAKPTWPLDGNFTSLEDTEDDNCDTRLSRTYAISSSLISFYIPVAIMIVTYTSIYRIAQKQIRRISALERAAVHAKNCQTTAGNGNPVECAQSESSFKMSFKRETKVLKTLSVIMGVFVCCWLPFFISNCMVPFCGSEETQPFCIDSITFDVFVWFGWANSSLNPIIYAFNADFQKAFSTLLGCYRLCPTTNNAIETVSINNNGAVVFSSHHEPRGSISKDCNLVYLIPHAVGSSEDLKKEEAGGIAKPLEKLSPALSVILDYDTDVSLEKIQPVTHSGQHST

CN1CCc2c(ccc3ccoc23)C(c2cccc3ccoc23)C1 (racemic) [Example 1, 6-(Benzofuran-7-yl)-8-methyl-7,8,9,10-tetrahydro-6H-furo 2,3-g! 3!benzazepine] showed an IC50 of 12 nM.
